# Test results published in patent US20260207624A1, “COADMINISTRATION OF ESTROGEN WITH ESTROGEN RECEPTOR MODULATOR OR DEGRADER OR ER TARGETED PROTAC FOR THE TREATMENT OF ESTROGEN RESPONSIVE CANCERS” (Duke University, priority 2022, published 2026).
# Entries after “also recorded” stand apart in the source; their conditions may differ.
# Experiments:
# BPD6 melanoma cells = assay: BPD6 melanoma tumor growth in ovariectomized mice receiving placebo or E2; type: in vivo, mouse; conditions: BPD6 tumors
# Procedure: (§1) Prior to implantation into animals, BPD6, E0771, and A7C11 cells were cultured in DMEM media supplemented with 8% fetal bovine serum, non-essential amino acids and sodium pyruvate. Cells were trypsinized and injected in phosphate buffered saline.
# (§2) For all experiments, mice were ovariectomized under anesthesia at 7 weeks of age and were provided placebo or estrogen (2.72 mcg/mL) treatment in drinking water throughout the remainder of the experiment. 7 to 10 days after surgery 0.5×10^6 BPD6melanoma cells or E0771 (0.2×10^6) or A7C 11 (0.4×10^5) mammary cancer cells per mouse were injected subcutaneously (BPD6) or orthotopically (A7C11 or E0771) into the axial mammary gland. Tumor growth was monitored by caliper measurement at least 3× weekly and was calculated as L×W2×0.5. For those mice receiving treatment with SERDs, mice were randomized to treatment 2 days after tumor implantation. 3574 (camizestrant) and 3964 were administered PO QD (by mouth every day) formulated in 5% DMSO/20% hydroxypropyl-b-cyclodextrin. Fulvestrant was administered SC Q5D in 10% DMSO/95% corn oil.
# (§3) At the conclusion of tumor measurement (approximately 2 weeks or when tumor reached 1.5-2 cm^3 volume), mice were euthanized by CO2 exposure followed by decapitation. Uteri were removed at necropsy and weighed as a measure of estrogen stimulation.
# (§4) To further explore the role of brain-expressed ER in tumor growth in the periphery, 2 SERDs were used with unique pharmacokinetics. […] ER-negative BPD6 melanoma cells were implanted into ovariectomized mice receiving either placebo or estradiol (E2) treatment in drinking water. After 48 hours, mice were randomized to receive vehicle (veh) or selective estrogen receptor degrader 3574 (10 mg/kg po qd; by mouth every day). Average tumor volume +/−SEM at each day of measurement was determined. Significance (p<0.05) was determined by 2-way ANOVA followed by Tukey's multiple comparison test. […] Treatment with anti-estrogens reversed this estradiol stimulation of tumor growth. E2 treated groups are included FIGS. 3A-3B.
# To further explore the relationship between brain exposure to SERDs and tumor response, a second melanoma experiment was conducted in which BPD6 tumors were implanted into ovariectomized mice receiving vehicle or estradiol treatment. These groups were further subdivided to receive vehicle or treatment with 25, 50, or 100 mg/kg fulvestrant.
# uterus = assay: Uterine wet weight at necropsy as measure of estrogen stimulation; type: in vivo, mouse
# Procedure: as §2, §3, §4
# E0771 mammary tumors = assay: E0771 mammary tumor growth in ovariectomized mice receiving placebo or E2; type: in vivo, mouse
# Procedure: as §1, §2, §3
# Analogous to the experiment in Example 4, E0771 mammary tumors were implanted in ovariectomized mice receiving E2 or placebo treatment.
# BPD6 melanoma tumors = assay: BPD6 tumor growth in mice with ER ablated in macrophages (LysMCre+) or littermate controls; type: in vivo, mouse
# Procedure: FIG. 5. TUMOR GROWTH IS REPRESSED WITH ESTROGEN AND A BRAIN-EXCLUDED SERD. FIG. 5 is a graph of tumor growth for BPD6 tumors with or without ER for the various indicated drug treatments. […] An analogous experiment to that presented in FIGS. 2A-2B and FIGS. 3A-3B was conducted in mice in which ER expression in macrophages was ablated using a promoter (LysM) to drive expression of the Cre enzyme to delete this receptor specifically in this cell type in mice having a floxed allele of ER. BPD6 melanoma tumors were implanted subcutaneously into Cre+ (ER ablated in macrophage) or littermate (LM, phenotypically wild type) mice that had been ovariectomized and then assigned to placebo or E2 treatment.
# as §2
# It was previously determined that for some cancer subtypes, including melanoma, one mechanism by which estrogens modulate tumor growth is by promoting a pro-tumor anti-inflammatory M2-like phenotype in the tumor infiltrating macrophages. Using a genetic model employing Cre-Lox technology to specifically delete estrogen receptor in myeloid cells (including macrophages), it was previously determined that loss of estrogen receptor expression in this immune cell population results in the loss of estrogen modulation of tumor growth in these tumors. […] BOD6 tumors were implanted in ovariectomized ERflox/flox/LysMCre+ or ERflox/flox mice that received placebo or estradiol treatment. Mice were further randomized to receive vehicle or SERD 3574 (10 mg/kg po qd; by mouth every day). Average tumor volume +/−SEM was determined. Significance (p<0.05) was determined by 2-way ANOVA followed by Tukey's multiple comparison test.
# A7C11 mammary tumors = assay: A7C11 mammary tumor growth in C57BL6 mice receiving placebo or estradiol; type: in vivo, mouse; conditions: for effect on tumor growth, fulvestrant alone: mice lacking estrogen exposure
# Procedure: FIGS. 11a-11b. […] 2 days later mice were subdivided to receive treatment with vehicle or fulvestrant (25, 50 or 100 mg/kg sc q5d). Average tumor volume throughout treatment (FIG. 11A) and uterine weight (FIG. 11B) at necropsy are presented. Placebo and E2+Veh groups in (FIG. 11A) are common between graphs to facilitate comparison. * p<0.05, 2-way (FIG. 11A) or 1-way (FIG. 11B) ANOVA followed by Tukey multiple comparison test. […]
# as §1
# as §2, with “[…]. […]” for “oil.”
# [1] = Brain penetration of the SERDs (pharmacokinetics); conditions: stated as a property of the SERD, no test described
# [2] = Cre- littermate control (LM) mice of the brain-ERKO experiment, E2 in drinking water
structure (smiles),measurement,setting,value
"C[C@]12CC[C@@H]3c4ccc(O)cc4CC[C@H]3[C@@H]1CC[C@@H]2O [E2, 17β-estradiol]",effect of E2 on tumor growth vs placebo treated control,BPD6 melanoma cells; [2],accelerated the growth of the tumors
same,increase in tumor growth as compared to placebo/vehicle treatment,"BPD6 melanoma cells; ovariectomized wild-type mice, agent alone (FIG. 2B)",3 fold
same,increase in uterine wet weight,"uterus; estrogen treatment vs placebo, BPD6 tumor bearing ovariectomized mice (FIG. 2A)",~10 fold
same,effect of E2 on tumor growth vs placebo treated control,E0771 mammary tumors; [2],accelerated the growth of the tumors
same,tumor volume relative to placebo control,E0771 mammary tumors; E2 treatment alone (FIG. 4A),approximately 2 fold
same,effect of E2 on tumor growth,BPD6 melanoma tumors; Cre+ mice (ER ablated in macrophage),without significant effect on tumor growth
same,tumor volume as compared to the placebo control,"BPD6 melanoma tumors; Cre- LM control mice, E2 treatment",2 fold
same,effect of E2 on tumor growth vs placebo treated control,A7C11 mammary tumors; [2],accelerated the growth of the tumors
same,effect on tumor growth,A7C11 mammary tumors; estradiol (2.72 mcg/mL drinking water) and vehicle co-administered,increase in A7C11 tumor growth
"C[C@@H]1Cc2c(ccc3[nH]ncc23)[C@@H](c2ccc(NC3CN(CCCF)C3)cn2)N1CC(F)(F)F [compound 3574, camizestrant]",effect on E2 induced tumor growth,"BPD6 melanoma cells; 3574 10 mg/kg po qd together with E2, 10 mg/kg","suppressed tumor growth below that observed in the placebo/vehicle treated control; also recorded: reversed E2 induced tumor growth, but in fact significantly repressed tumor growth as compared to placebo treatment alone"
same,"effect on tumor growth, SERD alone","BPD6 melanoma cells; placebo treated (no E2) mice, 3574 10 mg/kg po qd",without effect on tumor growth
same,effect on E2 stimulation of the uterus (post-mortem uterine wet weight),"uterus; E0771 tumor bearing mice, all doses of the SERD",reversed E2 stimulation of the uterus
same,effect on E2 stimulation of uterine wet weight,"uterus; SERD with E2, BPD6 tumor bearing ovariectomized mice",reversed E2 stimulation of uterine wet weight
same,"effect on uterine weight, SERD alone (ER agonist activity)","uterus; placebo together with SERD, BPD6 tumor bearing ovariectomized mice",did not affect uterine weight
same,effect on E2 stimulation of tumor growth,"E0771 mammary tumors; E2-treated mice, 3574 (10 mg/kg)",reversed E2 stimulation of tumor growth
same,effect on tumor growth vs Cre+ mice receiving E2 alone,"BPD6 melanoma tumors; Cre+ mice, 3574 10 mg/kg po qd and E2 together",significantly inhibited tumor growth
same,"effect on growth of tumors, SERD alone","BPD6 melanoma tumors; placebo treated Cre+ mice, 3574 10 mg/kg po qd",did not affect the growth of tumors
same,"effect on tumor growth, SERD alone",A7C11 mammary tumors; animals lacking estrogen exposure (FIGS. 12B-12D),did not impact tumor growth
same,"effect on tumor growth, SERD together with estrogen",A7C11 mammary tumors; estradiol treated mice (FIGS. 12B-12D),further repressed tumor growth
same,brain penetration,[1],brain excluded
C[C@]12CC[C@@H]3c4ccc(O)cc4C[C@@H](CCCCCCCCC[S+]([O-])CCCC(F)(F)C(F)(F)F)[C@H]3[C@@H]1CC[C@@H]2O (stereo partly drawn) [fulvestrant],effect on E2 stimulation of tumor growth,"BPD6 melanoma cells; E2-treated mice, fulvestrant 25, 50, or 100 mg/kg",reversed E2 stimulation of tumor growth
same,"effect on tumor growth, fulvestrant alone","BPD6 melanoma cells; placebo treated mice, fulvestrant 100 mg/kg",growth similar to that of the estrogen/vehicle control; also recorded: induced tumor growth itself
same,effect on estrogen-dependent increases in uterine weight,"uterus; A7C11 tumor bearing mice, fulvestrant 25, 50, or 100 mg/kg sc q5d",similarly repressed estrogen-dependent increases in uterine weight
same,effect on estrogen induction of tumor growth,"A7C11 mammary tumors; estradiol treated mice, 25, 50, or 100 mg/kg fulvestrant",similarly inhibited estrogen induction of A7C11 tumor growth
same,"effect on tumor growth, fulvestrant alone",A7C11 mammary tumors; 25 mg/kg fulvestrant sc q5d,dose not affect A7C11 tumor growth
same,"effect on tumor growth, fulvestrant alone",A7C11 mammary tumors; 50 or 100 mg/kg fulvestrant sc q5d,tumor growth comparable to that observed for the estrogen control group
Oc1ccc2c(c1)CC[C@H](c1ccccc1)[C@@H]2c1ccc(OCCN2CCCC2)cc1 [lasofoxifene],effect on tumor growth as compared to the placebo/vehicle control group,A7C11 mammary tumors; 3 mg/kg lasofoxifene po qd co-administered with estradiol,repression of tumor growth
